# According to patent publication US12195372B2 (priority 2018, dated 2025):
# Like-named read-outs stand apart in the source and are kept apart here.
# Details: room temperature (20-35° C.), atmospheric pressure
substance,measurement,setting,value
benzalkonium-perchlorate [BNZ-ClO4],ClO4 equilibrium conc.,matrix: deionized water,0.20 mM
same,ClO4 equilibrium conc.,matrix: ethanol,231 mM
same,ClO4 equilibrium conc.,matrix: salt water,0.81 mM
